Test results reported in US7550604B2, “Pyrroloterpenes and use of the same as antimicrobial and anticancer agents” (Nereus Pharmaceuticals, Inc., priority 2004, dated 2009).

Experiments:
Format in all cases: cell-based
Candida albicans = assay: Antimicrobial MIC assay (NCCLS M7-A5)
Protocol: (§1) Minimum inhibitory concentrations (MICs) were determined according to the National Committee for Clinical Laboratory Standards (NCCLS) susceptibility test guideline M7-A5 (Ferraro, M. 2001 Methods for Dilution Antimicrobial Susceptibility Tests for Bacteria that Grow Aerobically; Approved Standard (NCCLS). National Committee for Clinical Laboratory Standards (NCCLS), Villanova, which is incorporated herein by reference in its entirety).

[1] = system: Staphylococcus aureus - MSSA; assay: Antimicrobial MIC assay (NCCLS M7-A5)
Protocol: as §1

Bacillus cereus 14579 = assay: Antimicrobial MIC assay (NCCLS M7-A5)
Protocol: as §1

Escherichia coli imp = assay: Antimicrobial MIC assay (NCCLS M7-A5)
Protocol: as §1

HT-29 cells = assay: Growth inhibition of human colorectal adenocarcinoma HT-29 cells (resazurin)
Protocol: HT-29 (ATCC; HTB-38) a human colorectal adenocarcinoma cell line was maintained in complete McCoy's 5A medium (McCoy's 5A medium supplemented with 10% (v/v) Fetal bovine serum, 2 mM glutamine, 10 mM HEPES, 1% (v/v) non-essential amino acids (NEAA), 1 mM sodium pyruvate and Penicillin/Streptomycin at 100 IU/ml and 100 μg/ml respectively). The cells were cultured in an incubator at 37° C. in 5% CO2 and 95% humidified air. For cell growth inhibition assays, HT-29 cells were seeded at 5×10^3 cells/well in 90 μl complete media into Corning 3904 black-walled, clear-bottom tissue culture plates and the plates were incubated overnight to allow cells to establish and enter log phase growth. Two independent assays were performed using 200 mM or 400 mM stock solutions prepared in 100% DMSO. 10× concentrated serial dilutions of the compound of Formula (V) were prepared in appropriate culture medium. Ten μl volumes of the serial dilutions were added to the test wells in triplicate resulting in final concentrations ranging from 500 μM to 158 nM or 1 mM to 7.81 μM. The plates were returned to the incubator for 48 hours. The final concentration of DMSO was 0.25% in all samples. […] Since living cells metabolize Resazurin, the fluorescence of the reduction product of Resazurin was measured using a Fusion microplate fluorometer (Packard Bioscience) with λex =535 nm and λem=[…] filters. […]

B16-F10 cells = assay: Growth inhibition of murine melanoma B16-F10 cells (resazurin)
Protocol: B16-F10 (ATCC; CRL-6475) a murine melanoma cell line was maintained in complete Dulbecco's Modification of Eagle's Medium (DMEM) (DMEM supplemented with 10% (v/v) Fetal bovine serum, 2 mM glutamine, 10 mM HEPES and Penicillin/Streptomycin at 100 IU/ml and 100 μg/ml respectively). The cells were cultured in an incubator at 37° C. in 5% CO2 and 95% humidified air. For cell growth inhibition assays, B16-F10 cells were seeded at 1.25×10^3 cells/well in 90 μl complete media into Corning 3904 black-walled, clear-bottom tissue culture plates and the plates were incubated overnight to allow cells to establish and enter log phase growth. Two independent assays were performed using 200 mM or 400 mM stock solutions prepared in 100% DMSO. 10× concentrated serial dilutions of the compound of Formula (V) were prepared in appropriate culture medium. Ten μl volumes of the serial dilutions were added to the test wells in triplicate resulting in final concentrations ranging from 500 μM to 158 nM or 1 mM to 7.81 μM. The plates were returned to the incubator for 48 hours. The final concentration of DMSO was 0.25% in all samples. […] Since living cells metabolize Resazurin, the fluorescence of the reduction product of Resazurin was measured using a Fusion microplate fluorometer (Packard Bioscience) with λex =535 nm and λem=590 nm filters. […]

## CC(=C/C(=O)c1ccc[nH]1)/C=C/C(O)C1(C)CCC(C(C)(C)O)O1 (stereo not shown) [Formula (V)]
Candida albicans
  MIC: > 128 µg/mL
[1]; Staphylococcus aureus - MSSA
  MIC: 64 µg/mL
[1]; gram positive: Staphylococcus aureus - MSSA
  anti-bacterial activity versus gram positive microorganisms (in words): possess anti-bacterial activity
Bacillus cereus 14579; Bacillus cereus 14579
  MIC: 72 µg/mL
Bacillus cereus 14579; gram positive: Bacillus cereus 14579
  anti-bacterial activity versus gram positive microorganisms (in words): possess anti-bacterial activity
Escherichia coli imp
  MIC: 128 µg/mL
HT-29 cells; HT-29
  inhibition of growth of HT-29 tumor cells (in words): able to inhibit the growth
HT-29 cells; Homo sapiens, HT-29, 48 hours drug exposure, resazurin fluorescence, read-out: EC50 against HT-29 cells
  EC50: 286 µM
B16-F10 cells; B16-F10
  inhibition of growth of B16-F10 tumor cells (in words): able to inhibit the growth
B16-F10 cells; Mus musculus, B16-F10, 48 hours drug exposure, resazurin fluorescence, read-out: EC50 against B16-F10 cells
  EC50: 260 µM
